Data as given in ChEMBL document CHEMBL1126162, “A steric and electrostatic comparison of three models for the agonist/antagonist binding site on the adenosine A1 receptor” (J Med Chem, 1992).
“And” between values parts separate entries of the source, which are not always exact repeats. Identical values can stand only once.

molecular target: T1, Adenosine receptor A1 (Rattus norvegicus, UniProt P25099); assay: Evaluated for binding affinity against Adenosine A1 receptor
T1 sequence (P25099 whole entry): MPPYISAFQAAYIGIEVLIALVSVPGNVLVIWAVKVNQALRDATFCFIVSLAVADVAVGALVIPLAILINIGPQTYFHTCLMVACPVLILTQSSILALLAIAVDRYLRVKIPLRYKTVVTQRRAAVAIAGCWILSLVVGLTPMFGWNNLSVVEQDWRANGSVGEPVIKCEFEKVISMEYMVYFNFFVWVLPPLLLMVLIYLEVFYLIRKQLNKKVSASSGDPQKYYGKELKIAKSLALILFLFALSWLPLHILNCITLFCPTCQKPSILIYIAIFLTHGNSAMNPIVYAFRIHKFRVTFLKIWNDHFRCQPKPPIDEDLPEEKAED

With `COc1ccc(Nc2ncnc3c2ncn3[C@@H]2O[C@H](CO)[C@@H](O)[C@H]2O)cc1` the IC50 was 8.91 nM and 4.57 nM.

Point of comparison: `CCCn1c(=O)c2[nH]c(-c3ccccc3)nc2n(CCC)c1=O`, Ki 11 nM. Against it:
- Cn1c(=O)c2nc(-c3cccc(F)c3)[nH]c2n(C)c1=O — 4.6-fold lower, 2.4 nM
- CCCn1c(=O)c2nc(Cc3ccccc3)[nH]c2n(CCC)c1=O — 81-fold higher, 891 nM
- CCCn1c(=O)c2[nH]c(CC3CCCCC3)nc2n(CCC)c1=O — 3.5-fold higher, 38.9 nM
- Cc1ccc(-c2nc3c([nH]2)c(=O)n(C)c(=O)n3C)cc1 — 21-fold lower, 0.513 nM
- Cn1c(=O)c2[nH]c(-c3ccc(Cl)cc3)nc2n(C)c1=O — 17-fold lower, 0.646 nM
- Cc1cccc(-c2nc3c([nH]2)c(=O)n(C)c(=O)n3C)c1 — 2-fold lower, 5.37 nM
- Cn1c(=O)c2[nH]c(-c3ccc(F)cc3)nc2n(C)c1=O — 6-fold lower, 1.82 nM
- Cn1c(=O)c2[nH]c(-c3ccccc3F)nc2n(C)c1=O — 1.6-fold lower, 6.76 nM
- CCCn1c(=O)c2nc(-c3ccc(OC)cc3)[nH]c2n(CCC)c1=O — 2.4-fold lower, 4.57 nM
- COc1ccccc1-c1nc2c([nH]1)c(=O)n(C)c(=O)n2C — 17-fold higher, 191 nM

Point of comparison: `CCCc1ccccc1Nc1ncnc2c1ncn2C1O[C@H](CO)[C@@H](O)[C@H]1O` (stereo partly specified), IC50 1.2 nM. Against it:
- OC[C@H]1O[C@@H](n2cnc3c(NC4CC4)ncnc32)[C@H](O)[C@@H]1O — 1.7-fold higher, 2.09 nM
- OC[C@H]1OC(n2cnc3c(NCC4CCCCC4)ncnc32)[C@H](O)[C@@H]1O (stereo partly specified) — 33-fold higher, 39.8 nM
- COc1ccccc1Nc1ncnc2c1ncn2C1O[C@H](CO)[C@@H](O)[C@H]1O (stereo partly specified) — 71-fold higher, 85.1 nM
- Cc1ccc(Nc2ncnc3c2ncn3C2O[C@H](CO)[C@@H](O)[C@H]2O)cc1 (stereo partly specified) — 4.1-fold higher, 4.9 nM
- Cc1ccccc1Nc1ncnc2c1ncn2C1O[C@H](CO)[C@@H](O)[C@H]1O (stereo partly specified) — 7.4-fold higher, 8.91 nM
- OC[C@H]1OC(n2cnc3c(Nc4cccc(F)c4)ncnc32)[C@H](O)[C@@H]1O (stereo partly specified) — within 1.5-fold, 1 nM
- COc1cccc(Nc2ncnc3c2ncn3C2O[C@H](CO)[C@@H](O)[C@H]2O)c1 (stereo partly specified) — 39-fold higher, 46.8 nM
- OC[C@H]1OC(n2cnc3c(Nc4ccccc4F)ncnc32)[C@H](O)[C@@H]1O (stereo partly specified) — 3.3-fold higher, 3.98 nM
- OC[C@H]1OC(n2cnc3c(Nc4ccc(F)cc4)ncnc32)[C@H](O)[C@@H]1O (stereo partly specified) — 1.7-fold higher, 2 nM
- OC[C@H]1OC(n2cnc3c(Nc4ccc(Cl)cc4)ncnc32)[C@H](O)[C@@H]1O (stereo partly specified) — 1.8-fold higher, 2.19 nM
- Cc1cccc(Nc2ncnc3c2ncn3C2O[C@H](CO)[C@@H](O)[C@H]2O)c1 (stereo partly specified) — 22-fold higher, 26.9 nM
- CCCc1ccccc1Nc1ncnc2c1ncn2C1OC(CO)[C@@H](O)[C@H]1O (single isomer, unassigned) — 44-fold higher, 52.5 nM
- OC[C@H]1O[C@@H](n2cnc3c(Nc4ccccc4)ncnc32)[C@H](O)[C@@H]1O [N6-PHENYLADENOSINE] — 2.8-fold higher, 3.31 nM
